Measured values from article PMC9705844, “Inhibitory Activity of 4-O-Benzoyl-3′-O-(OMethylsinapoyl) Sucrose from Polygala tenuifolia on Escherichia coli β-Glucuronidase” (Journal of Microbiology and Biotechnology, 2021).

Columns and labels:
[1] = biological target: T1, β-glucuronidase (Escherichia coli, UniProt P05804); test: PNPG hydrolysis assay at […] nm with commercial enzyme; positive control; type: biochemical
T1 construct: gene uidA

[2] = biological target: T1, β-glucuronidase; test: PNPG hydrolysis assay at […] nm with commercial enzyme; Lineweaver-Burk and secondary plots (IC50 […]); type: biochemical

T1 sequence (P05804 whole entry): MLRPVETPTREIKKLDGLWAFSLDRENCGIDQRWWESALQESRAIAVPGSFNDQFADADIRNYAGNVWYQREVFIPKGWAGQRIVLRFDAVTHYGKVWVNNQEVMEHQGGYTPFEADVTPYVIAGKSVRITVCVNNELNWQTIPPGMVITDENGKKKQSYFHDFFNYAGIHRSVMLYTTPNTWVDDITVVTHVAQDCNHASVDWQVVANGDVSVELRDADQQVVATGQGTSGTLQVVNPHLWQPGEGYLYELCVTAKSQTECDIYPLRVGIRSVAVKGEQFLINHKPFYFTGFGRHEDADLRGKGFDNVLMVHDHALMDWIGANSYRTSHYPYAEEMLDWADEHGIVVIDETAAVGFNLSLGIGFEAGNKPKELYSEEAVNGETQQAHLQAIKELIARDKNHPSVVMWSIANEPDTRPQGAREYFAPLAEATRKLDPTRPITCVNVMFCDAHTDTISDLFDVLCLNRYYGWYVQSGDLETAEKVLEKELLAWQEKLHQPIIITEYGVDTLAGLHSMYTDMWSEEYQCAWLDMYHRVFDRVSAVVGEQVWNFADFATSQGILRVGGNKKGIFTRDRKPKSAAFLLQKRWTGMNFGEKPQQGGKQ

Row | Compound | IC50 [1] [µM] | Ki [2] [µM]
1 | O=C(O)[C@@H](O)[C@H]1OC(=O)[C@H](O)[C@H]1O [DSA, D-saccharic acid 1,4-lactone] | 19.6 ± 2.4 | –
2 | COc1cc(/C=C/C(=O)O[C@H]2[C@H](O)[C@@H](CO)O[C@@]2(CO)O[C@H]2O[C@H](CO)[C@@H](OC(=O)c3ccccc3)[C@H](O)[C@H]2O)cc(OC)c1OC [compound 3, 4-O-Benzoyl-3′-O-(O-methylsinapoyl) sucrose] | – | 13.4
